Test results as given in patent US20260115202A1, “TOPICAL COMPOSITIONS COMPRISING AN ESTETROL COMPONENT AND USE OF SAID COMPOSITIONS FOR WOUND HEALING” (NEURALIS SA, priority 2022, published 2026).
Entries after “also recorded” stand apart in the source; their conditions may differ.

Tests used:
[1] = test system: murine peritoneal macrophages; experiment: M1-polarised freshly isolated murine peritoneal macrophages, qPCR of M1 markers; assay type: cell-based, mouse; details: peritoneal macrophages pre-treated at 10^−7M, M1 polarised 6 hours; for expression of M1 markers (iNOS, IL1-β, Tnf-α): versus vehicle
Description: Peritoneal macrophages from C57/B16 mice were isolated by peritoneal lavage. The peritoneal cavity of euthanised mice were filled with 5 ml ice cold PBS supplemented with 3% FBS. Cell-containing lavage fluid was removed using a needle and syringe and cells seeded into 12- or 6-well plates at 1×10^6 cells/ml in RPM1 growth medium supplemented with 10% charcoal-stripped FBS and 1% penicillin/streptomycin, were treated with 10^-7M E2 or E4 in serum free growth medium for 16 hours and polarised to M1-type cells using 100 ng/ml IFN-γ and 1 μg/ml LPS. Following 6- or 24-hours polarisation cells were collected for RNA isolation or flow cytometry. Following treatments, human and murine macrophages were collected in Trizol and RNA isolated using the Trizol plus RNA isolation kit (Invitrogen. Thermo Fisher) according to the manufacturer's instructions. RNA was reverse transcribed to cDNA using GoScript reverse transcriptase (Promega). Quantitative real-time PCR was carried out using 2×Takyon SYBR Green mastermix and a CFX Connect thermocycler. Primers for ERα and ERβ were used to explore changes in ER expression after treatment of MEK and MDF with E2 and E4. To investigate the effect of E2 and E4 on MEK differentiation and the expression of ECM proteins by MDF, primers for. Snail, keratin-1 and fibronectin, collagen I. MMP-2 and MMP-9 were used. Primers for INOS. IL-1B and Tnf-α or Ccl17 were used to assess M1/M2 polarisation status. Primers for GAPDH were used to normalise data. Relative gene expression was set to vehicle controls or M0 expression unless otherwise stated. Finally, the anti-inflammatory effects E2 and E4 were evaluated in freshly isolated murine peritoneal macrophages. Unlike the BMDM protocol, the already differentiated peritoneal macrophages were immediately pre-treated with E2 (10^−7M) or E4 (10^−7M), followed by M1 polarisation using IFN-γ and LPS for 6 hours. […] Note, the overall level of marker expression was higher in these cells. […] The observed anti-inflammatory effects of E4 were broadly similar to those observed for E2.

[2] = test system: primary mouse epidermal keratinocytes (MEKs); experiment: qPCR gene expression in primary mouse epidermal keratinocytes; assay type: cell-based; details: MEK; for expression of EMT marker Snail: 10^−7M; for expression of ERα and ERβ: particularly at 10^−7M, 24 hours, not statistically significant
Description: Primary human dermal fibroblasts (HDF) were isolated from abdominal skin or leg skin. Primary neonatal normal human epidermal keratinocytes (NHEK) were purchased (Lonza). Murine dermal fibroblasts (MDF), murine epidermal keratinocytes (MEK), murine peritoneal macrophages and murine bone marrow were isolated from C57/B16 (wt). NDb (Lepr+/−) or Db (Lepr−/−) mice.
Neonatal HEK were cultured in EpiLife supplemented with […] human keratinocyte growth supplements (HKGS) and 1% penicillin/streptomycin. MEK were cultured in CnT basal medium supplemented with 1% penicillin/streptomycin and 1% amphotericin B.
Following treatments, human and murine macrophages were collected in Trizol and RNA isolated using the Trizol plus RNA isolation kit (Invitrogen. Thermo Fisher) according to the manufacturer's instructions. RNA was reverse transcribed to cDNA using GoScript reverse transcriptase (Promega). Quantitative real-time PCR was carried out using 2×Takyon SYBR Green mastermix and a CFX Connect thermocycler. Primers for ERα and ERβ were used to explore changes in ER expression after treatment of MEK and MDF with E2 and E4. To investigate the effect of E2 and E4 on MEK differentiation and the expression of ECM proteins by MDF, primers for. Snail, keratin-1 and fibronectin, collagen I. MMP-2 and MMP-9 were used. Primers for INOS. IL-1B and Tnf-α or Ccl17 were used to assess M1/M2 polarisation status. Primers for GAPDH were used to normalise data. Relative gene expression was set to vehicle controls or M0 expression unless otherwise stated.
Next, we switched to primary mouse epidermal keratinocytes (MEKs) to explore the effect of E2 and E4 on MEK wound-relevant gene expression. […] Snail, following treatment with either E2 or E4 at 10^−7M. […] In general, the observed effects of E2 and E4 on gene expression were reversed by co-treatment with the ER antagonist ICI.

MMP2 = experiment: Zymography of supernatants from human dermal fibroblasts; assay type: cell-based; details: HDFs from 3 independent donors, versus control
Description: In vitro cultured murine fibroblasts were treated with either E2, E4, DPN or PPT at 10^−7M. As previously reported. […] Next, zymography was performed on cell supernatants from HDFs treated with either E2 or E4, to evaluate the effect of E2 and E4 on cell-derived MMP activity. […] The magnitude of the effect (and statistical significance) was greater in cells treated with E4. No MMP9 activity was detected in any treatment group. Finally, we explored the effect of E2 and E4 on murine fibroblast expression of extracellular matrix genes, specifically collagen 1 (Colal) and fibronectin (Fn1) (FIG. 20).

[3] = test system: murine dermal fibroblasts (MDF); experiment: qPCR gene expression in murine dermal fibroblasts; assay type: cell-based, mouse; details: for expression of ERα and ERβ: MDF, 10^−7M, qPCR
Excerpt: Primary human dermal fibroblasts (HDF) were isolated from abdominal skin or leg skin. Primary neonatal normal human epidermal keratinocytes (NHEK) were purchased (Lonza). Murine dermal fibroblasts (MDF), murine epidermal keratinocytes (MEK), murine peritoneal macrophages and murine bone marrow were isolated from C57/B16 (wt). NDb (Lepr+/−) or Db (Lepr−/−) mice. Fibroblasts were isolated and cultured in DMEM supplemented with 10% heat inactivated FBS. 1% penicillin/streptomycin and 1% amphotericin B. At least 4 days prior to performing assays cells were switched to DMEM supplemented with 5% charcoal-stripped FBS. Following treatments, human and murine macrophages were collected in Trizol and RNA isolated using the Trizol plus RNA isolation kit (Invitrogen. Thermo Fisher) according to the manufacturer's instructions. RNA was reverse transcribed to cDNA using GoScript reverse transcriptase (Promega). Quantitative real-time PCR was carried out using 2×Takyon SYBR Green mastermix and a CFX Connect thermocycler. Primers for ERα and ERβ were used to explore changes in ER expression after treatment of MEK and MDF with E2 and E4. To investigate the effect of E2 and E4 on MEK differentiation and the expression of ECM proteins by MDF, primers for. Snail, keratin-1 and fibronectin, collagen I. MMP-2 and MMP-9 were used. Primers for INOS. IL-1B and Tnf-α or Ccl17 were used to assess M1/M2 polarisation status. Primers for GAPDH were used to normalise data. Relative gene expression was set to vehicle controls or M0 expression unless otherwise stated. In vitro cultured murine fibroblasts were treated with either E2, E4, DPN or PPT at 10^−7M. As previously reported. […] Next, zymography was performed on cell supernatants from HDFs treated with either E2 or E4, to evaluate the effect of E2 and E4 on cell-derived MMP activity. […] The magnitude of the effect (and statistical significance) was greater in cells treated with E4. No MMP9 activity was detected in any treatment group. Finally, we explored the effect of E2 and E4 on murine fibroblast expression of extracellular matrix genes, specifically collagen 1 (Colal) and fibronectin (Fn1) (FIG. 20).

[4] = fibroblasts derived from diabetic (db/db) mice
[5] = fibroblasts derived from wild-type mice

Compound	expression of M1 markers (iNOS, IL1-β, Tnf-α) [1]	expression of differentiation marker Keratin 1 (Krt1) [2]	expression of EMT marker Snail [2]	expression of ERα and ERβ [2]	MMP2 activity in cell supernatants (MMP2)	expression of ERα and ERβ [3]	expression of collagen 1 and fibronectin (Fn1) [3, 4]	expression of collagen 1 and fibronectin (Fn1) [3, 5]	expression of IL1-β [1]
C[C@]12CC[C@@H]3c4ccc(O)cc4CC[C@H]3[C@@H]1CC[C@@H]2O [Formulation E2, 17β-estradiol, reference compound]	strong trend towards reduced expression	trend towards downregulation	statistically significant induction	strong trend towards induction of both ERα and ERβ	significantly reduced MMP2 activity versus control	upregulated expression of both ERα and ERβ	trend towards increased expression of both Co1a1 and Fn1	no effect was observed following treatment	
C[C@]12CC[C@@H]3c4ccc(O)cc4CC[C@H]3[C@@H]1[C@@H](O)[C@@H](O)[C@@H]2O [Formulation E4, 1,3,5 (10)-estratrien-3,15alpha, 16alpha, 17beta-tetrol]	strong trend towards reduced expression	trend towards downregulation	statistically significant induction	strong trend towards increased expression of both ERα and ERβ	significantly reduced MMP2 activity versus control	increases expression of both ERα and ERβ	trend towards increased expression of both Co1a1 and Fn1; also recorded: reached statistical significance for fibronectin (Fn1)	no effect was observed following treatment	achieved statistical significance
